Columns and labels:
[1] = target: Human immunodeficiency virus type 1 reverse transcriptase (Human immunodeficiency virus 1) (UniProt Q72547)
Description: Inhibitory concentration for 90% inhibition of HIV-1 reverse transcriptase, whole cell based antiviral assay

[2] = target: Human immunodeficiency virus type 1 reverse transcriptase (Human immunodeficiency virus 1, UniProt Q72547); assay: Inhibitory concentration for 50% inhibition of HIV-1 reverse transcriptase

| SMILES | IC90 [1] [nM] | IC50 [2] [nM] |
| --- | --- | --- |
| CCCS(=O)(=O)N1c2ccccc2NC(=O)C1(C#CC1CC1)C(F)(F)F (stereo unspecified) | > 1000 | > 5000 |
| CC(C)COC(=O)N1c2ccccc2NC(=O)C1(C#CC1CC1)C(F)(F)F (stereo unspecified) | 158 | 1140 |
| O=C1Nc2ccc(F)cc2N(CC2CC2)C1(C#CC1CC1)C(F)(F)F (stereo unspecified) | 23 | 263 |
| C=C(C)OC(=O)N1c2ccccc2NC(=O)C1(C#CC1CC1)C(F)(F)F (stereo unspecified) | 11 | 169 |
| O=C1Nc2ccccc2N(CC2CC2)C1(C#CC1CC1)C(F)(F)F (stereo in doubt; 6a) [listing 1 of 2 here] |  | 253 |
| CCOC(=O)N1c2cc(Cl)ccc2NC(=O)C1(C#CC1CC1)C(F)(F)F (stereo unspecified) | 11 | 127 |
| C=CCN1c2cc(Cl)ccc2NC(=O)C1(C#CC1CC1)C(F)(F)F (stereo unspecified) | 85 | 650 |
| CCOC(=O)N1c2cc(F)ccc2NC(=O)C1(C#CC1CC1)C(F)(F)F (stereo unspecified) | 8 | 121 |
| CCOC(=O)N1c2ccccc2NC(=O)C1(C#CC1CC1)C(F)(F)F (stereo in doubt; 6m) [listing 1 of 2 here] |  | 118 |
| CC(C)OC(=O)N1c2cc(Cl)ccc2NC(=O)C1(C#CC1CC1)C(F)(F)F (stereo unspecified) | 19 | 160 |
| CC(C)OC(=O)N1c2cc(F)ccc2NC(=O)C1(C#CC1CC1)C(F)(F)F (stereo unspecified) | 9 | 130 |
| CC[C@H]1C(=O)Nc2ccc(F)cc2N1C(=O)OC(C)C [OPAVIRALINE] | 11 | 179 |
| O=C1Nc2ccccc2N(CCC2CC2)C1(C#CC1CC1)C(F)(F)F (stereo unspecified) | 32 | 340 |
| C=CCOC(=O)N1c2ccccc2NC(=O)C1(C#CC1CC1)C(F)(F)F (stereo unspecified) | 30 | 147 |
| C=C(C)OC(=O)N1c2cc(F)ccc2NC(=O)C1(C#CC1CC1)C(F)(F)F (stereo unspecified) | 8 | 183 |
| CCS(=O)(=O)N1c2ccccc2NC(=O)C1(C#CC1CC1)C(F)(F)F (stereo unspecified) | > 1000 | > 5000 |
| CC(C)C(I)N1c2ccccc2NC(=O)C1(C#CC1CC1)C(F)(F)F (stereo unspecified) | 19 | 160 |
| C=CCN1c2ccccc2NC(=O)C1(C#CC1CC1)C(F)(F)F (stereo unspecified) | 22 | 601 |
| C=CCN1c2cc(F)ccc2NC(=O)C1(C#CC1CC1)C(F)(F)F (stereo unspecified) | 21 | 124 |

| SMILES | IC90 [1] [nM] | IC50 [2] [nM] |
| --- | --- | --- |
| CCOC(=O)N1c2ccccc2NC(=O)C1(C#CC1CC1)C(F)(F)F (stereo in doubt; 6m) [listing 2 of 2 here] | 9 |  |
| CC(C)S(=O)(=O)N1c2ccccc2NC(=O)C1(C#CC1CC1)C(F)(F)F (stereo unspecified) | > 1000 | > 5000 |
| CC(C)CN1c2cc(Cl)ccc2NC(=O)C1(C#CC1CC1)C(F)(F)F (stereo unspecified) | 52 | 404 |
| C=CCN1c2cc(OC)ccc2NC(=O)C1(C#CC1CC1)C(F)(F)F (stereo unspecified) | 29 | 123 |
| O=C1Nc2ccc(Cl)cc2N(CC2CC2)C1(C#CC1CC1)C(F)(F)F (stereo unspecified) | 27 | 329 |
| COC(=O)N1c2ccccc2NC(=O)C1(C#CC1CC1)C(F)(F)F (stereo unspecified) | 44 | 504 |
| C#CCN1c2ccccc2NC(=O)C1(C#CC1CC1)C(F)(F)F (stereo unspecified) | 53 | 1810 |
| O=C1Nc2ccccc2N(CC2CC2)C1(C#CC1CC1)C(F)(F)F (stereo in doubt; 6z) [listing 1 of 2 here] | 11 |  |
| O=C(c1ccccc1)N1c2ccccc2NC(=O)C1(C#CC1CC1)C(F)(F)F (stereo unspecified) | > 1000 | > 5000 |
| C=C(C)OC(=O)N1c2cc(Cl)ccc2NC(=O)C1(C#CC1CC1)C(F)(F)F (stereo unspecified) | 15 | 315 |
| CC(C)OC(=O)N1c2ccccc2NC(=O)C1(C#CC1CC1)C(F)(F)F (stereo unspecified) | 15 | 108 |
| CCCCOC(=O)N1c2ccccc2NC(=O)C1(C#CC1CC1)C(F)(F)F (stereo unspecified) | 105 | 672 |
| O=C1Nc2ccccc2N(Cc2ccccc2)C1(C#CC1CC1)C(F)(F)F (stereo unspecified) | 21 | 1820 |
| COc1ccc2c(c1)N(CC1CC1)C(C#CC1CC1)(C(F)(F)F)C(=O)N2 (stereo unspecified) | 19 | 109 |
| CCOC(=O)N1c2ccccc2NC(=O)C1(C#CC1CC1)C(F)(F)F (stereo in doubt) [listing 1 of 2 here] | 4.8 |  |
| O=C1Nc2ccccc2N(CC2CC2)C1(C#CC1CC1)C(F)(F)F (stereo in doubt; 6z) [listing 2 of 2 here] |  | 127 |
| O=C1Nc2ccccc2N(CC2CC2)C1(C#CC1CC1)C(F)(F)F (stereo in doubt; 6a) [listing 2 of 2 here] | 17 |  |
| CCOC(=O)N1c2ccccc2NC(=O)C1(C#CC1CC1)C(F)(F)F (stereo in doubt) [listing 2 of 2 here] |  | 45 |

From ChEMBL document CHEMBL1133258, “Synthesis and evaluation of quinoxalinones as HIV-1 reverse transcriptase inhibitors” (Bioorg Med Chem Lett, 2000)
